Active and inactive are the calls of the source. No cut-off for these calls is given here.
Legend:
SK-BR-3 = assay: Antiproliferative activity against human SKBR3 cells; type: functional, cell-based
MCF7 [1] = assay: Antiproliferative activity against human MCF7 cells; type: functional, cell-based
[2] = molecular target: Heat shock protein HSP 90-beta (Homo sapiens) (UniProt P08238); assay: Inhibition of human C-terminal domain of Hsp90 in MCF7 cells assessed as Her2 degradation at 0.1 to 100 uM by Western blotting; type: cell-based
[3] = molecular target: Heat shock protein HSP 90-beta (Homo sapiens) (UniProt P08238); assay: Inhibition of human C-terminal domain of Hsp90 in MCF7 cells assessed as Raf degradation at 0.1 to 100 uM by Western blotting; type: cell-based
[4] = molecular target: Heat shock protein HSP 90-beta (Homo sapiens) (UniProt P08238); assay: Inhibition of human C-terminal domain of Hsp90 in MCF7 cells assessed as Akt degradation at 0.1 to 100 uM by Western blotting; type: cell-based
[5] = molecular target: Heat shock protein HSP 90-beta (Homo sapiens) (UniProt P08238); assay: Induction of human Hsp90 activity in MCF7 cells at 0.1 to 100 uM by Western blotting; type: cell-based
MCF7 [6] = assay: Ratio of IC50 for human SKBR3 cells to IC50 for human MCF7 cells; type: functional

Sequence of Heat shock protein HSP 90-beta (Homo sapiens) (P08238 whole entry, the tested form may be a part): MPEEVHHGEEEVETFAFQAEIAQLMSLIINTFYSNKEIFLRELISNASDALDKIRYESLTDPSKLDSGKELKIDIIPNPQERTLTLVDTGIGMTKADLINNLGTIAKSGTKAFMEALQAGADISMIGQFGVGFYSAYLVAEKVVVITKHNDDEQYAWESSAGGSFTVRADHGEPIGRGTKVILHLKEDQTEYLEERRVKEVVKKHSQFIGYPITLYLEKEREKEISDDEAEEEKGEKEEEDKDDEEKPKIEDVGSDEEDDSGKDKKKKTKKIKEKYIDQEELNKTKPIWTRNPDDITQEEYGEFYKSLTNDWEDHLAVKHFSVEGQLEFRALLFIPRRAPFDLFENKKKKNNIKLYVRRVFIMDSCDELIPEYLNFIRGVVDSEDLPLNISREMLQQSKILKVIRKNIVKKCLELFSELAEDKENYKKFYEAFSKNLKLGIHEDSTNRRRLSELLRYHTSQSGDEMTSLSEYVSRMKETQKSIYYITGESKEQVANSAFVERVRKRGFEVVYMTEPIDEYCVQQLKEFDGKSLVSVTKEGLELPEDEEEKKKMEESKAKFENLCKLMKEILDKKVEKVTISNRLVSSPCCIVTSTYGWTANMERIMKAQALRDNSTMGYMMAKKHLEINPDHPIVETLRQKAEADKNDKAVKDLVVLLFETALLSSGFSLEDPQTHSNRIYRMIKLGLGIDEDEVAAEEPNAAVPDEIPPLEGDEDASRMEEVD

IC50 (SK-BR-3) [µM] | IC50 (MCF7 [1]) [µM] | Structure (SMILES) | other results
14.2 | 14.9 | COCOc1ccc(Cc2ccc3cc(NC(=O)c4ccc(OC(C)=O)c(CC=C(C)C)c4)c(=O)oc3c2C)cc1OC | 
10.7 | 14.6 | COc1cc(Cc2ccc3cc(NC(=O)c4ccc(O)c(CC=C(C)C)c4)c(=O)oc3c2C)ccc1O | 
72.4 | 75 | CC(=O)Oc1ccc(C(=O)Nc2cc3ccc(Oc4ccc(C(C)(C)C)cc4)c(C)c3oc2=O)cc1CC=C(C)C | 
> 100 | > 100 | COc1ccc(Cc2ccc3cc(NC(=O)c4ccc(OC)c(-c5cccc(OC)c5)c4)c(=O)oc3c2C)cc1 | 
> 100 | > 100 | COc1ccc(Nc2ccc3cc(NC(=O)c4ccc(OC)c(-c5cccc(OC)c5)c4)c(=O)oc3c2C)cc1 | 
13.5 | 22.7 | COCOc1ccc(Cc2ccc3cc(NC(=O)c4ccc(OC(C)=O)c(CC=C(C)C)c4)c(=O)oc3c2C)cc1 | 
14.8 | 19.7 | COc1cccc(Cc2ccc3cc(NC(=O)c4ccc(O)c(CC=C(C)C)c4)c(=O)oc3c2C)c1 | 
> 100 | > 100 | COc1ccc(Nc2ccc3cc(NC(=O)c4ccc(OC(C)=O)c(CC=C(C)C)c4)c(=O)oc3c2C)cc1 | 
13.7 | 15.7 | COc1cccc(Oc2ccc3cc(NC(=O)c4ccc(OC(C)=O)c(CC=C(C)C)c4)c(=O)oc3c2C)c1 | 
> 100 | > 100 | COc1ccc(Oc2ccc3cc(NC(=O)c4ccc(OC)c(-c5cccc(OC)c5)c4)c(=O)oc3c2C)cc1 | 
> 100 | > 100 | COc1cccc(-c2cc(C(=O)Nc3cc4ccc(Oc5ccc(C(C)(C)C)cc5)c(C)c4oc3=O)ccc2OC)c1 | 
11.1 | 13.2 | COc1ccc(Cc2ccc3cc(NC(=O)c4ccc(O)c(CC=C(C)C)c4)c(=O)oc3c2C)cc1 | 
> 100 | > 100 | COc1ccc(Nc2ccc3cc(NC(=O)c4ccc(O)c(CC=C(C)C)c4)c(=O)oc3c2C)cc1 | 
> 100 | > 100 | COc1cccc(Oc2ccc3cc(NC(=O)c4ccc(OC)c(-c5cccc(OC)c5)c4)c(=O)oc3c2C)c1 | 
21.5 | 32.1 | CC(C)=CCc1cc(C(=O)Nc2cc3ccc(Cc4ccc(O)cc4)c(C)c3oc2=O)ccc1O | 
33.1 | 62.8 | COc1cccc(Oc2ccc3cc(NC(=O)c4ccc(O)c(CC=C(C)C)c4)c(=O)oc3c2C)c1 | 
23.5 | 11.5 | COc1ccc(Cc2ccc3cc(NC(=O)c4ccc(OC(C)=O)c(CC=C(C)C)c4)c(=O)oc3c2C)cc1 | inhibition [2]: Active; inhibition [3]: Active; inhibition [4]: Active; Activity [5]: inactive
19.5 | 18.2 | COc1ccc(Oc2ccc3cc(NC(=O)c4ccc(OC(C)=O)c(CC=C(C)C)c4)c(=O)oc3c2C)cc1 | 
4.09 | 7.11 | COc1cccc(-c2cc(C(=O)Nc3cc4ccc(Cc5ccccc5)c(C)c4oc3=O)ccc2OC)c1 | 
68.3 | 20.6 | CC(C)=CCc1cc(C(=O)Nc2cc3ccc(Oc4ccc(C(C)(C)C)cc4)c(C)c3oc2=O)ccc1O | 
> 100 | 13.9 | COc1ccc(Cc2ccc3cc(NC(=O)c4ccc(O)c(CC=C(C)C)c4)c(=O)oc3c2C)cc1OC | Ratio IC50 (MCF7 [6]): 10
42.7 | 6.51 | COc1ccc(Oc2ccc3cc(NC(=O)c4ccc(O)c(CC=C(C)C)c4)c(=O)oc3c2C)cc1 | inhibition [2]: Active; inhibition [3]: Active; inhibition [4]: Active; Activity [5]: inactive
